Laboratory results reported in patent US5962533A, “Hydroxy polyamines” (priority 1996, dated 1999).
Several values for one entry are separate records, joined by “and”; a condition that tells them apart may be missing. Identical values can stand only once. Like-named read-outs stand apart in the source and are kept apart here.

Assays:
[1] = tested on: polyamine transport apparatus; test: Competition with radiolabeled spermidine for uptake into L1210 cells (Ki); assay type: cell-based, Murine
Description: The same cell line was utilized to evaluate the tetraamines's competition with radiolabeled spermidine for the polyamine uptake apparatus (Ki). The Ki values here are the concentrations of drugs required to inhibit the uptake of radioactive spermidine transport by 50% (Table 1).
Uptake Determinations. The polyamine derivatives were studied for their ability to compete with [^3 H]SPD or [^14 C]SPD for uptake into L1210 leukemia cells in vitro. Cell suspensions were incubated in 1 ml of RPMI-1640 containing 1, 2, 4, 6, 8 and 10 μm radiolabeled SPD alone or with the additional presence of 10, 25 and 50 μm polyamine analogue for 20 minutes at 37° C. At the end of the incubation period, tubes were centrifuged at 900 g for 5 minutes at 0-4° C. The pellet was washed twice with 5 ml of cold RPMI-1640 containing 1 mm SPD, dissolved in 200 μl of 1N NaOH at 60° C. for 1 hour, and neutralized with 1N HCl. The material was transferred to a vial for scintillation counting.

L1210 cells [2] = test: L1210 growth inhibition, IC50 determinations; assay type: cell-based, Murine; conditions: L1210 cells
Description: IC50 Determinations. Cells were grown in 25 cm^2 tissue culture flasks in a total volume of 10 ml. Cultures were treated while in logarithmic growth (0.5-1.0×10^5 cells/ml) with the polyamine derivative diluted in sterile water and filtered through a 0.2 μm filter.
After the indicated time periods, cells were removed from the incubator for counting. Cell number was determined by electronic particle counting (Model ZF coulter counter, Coulter Electronics, Hialeah, Fla.) and confirmed periodically with hemocytometer measurements.
The percentage of control growth was determined as follows: [formula]

L1210 cells [3] = test: Polyamine pool analysis in analogue-treated L1210 cells (HPLC); assay type: cell-based, Murine
Description: Polyamine Pool Analysis. While in logarithmic growth, cells were treated with the polyamine derivatives. […] Each supernatant was frozen at -20° C. until analysis by HPLC.

NMDA receptor = test: NMDA assay: specific [3H]MK-801 binding to washed rat cerebral cortical membranes; conditions: 100 μm L-glutamate, 100 μm glycine, 2 nm [3H]MK-801
From the text: FIG. 4 depicts the effects of (HO)2 DEHSPM and DEHSPM on the NMDA receptor (MK-801 binding). Each data point represents the mean ±s.d. of three experiments. Each experiment was, in turn, performed in triplicate. "100% activity" is defined as the amount of specific MK-801 binding to washed rat cerebral cortical membranes in the presence of saturating concentrations of coagonists (100 μm L-glutamate, 100 μm glycine) and 2 nm [^3 H]MK-801.
NMDA Assay. The procedure for measuring specific binding of [^3 H]MK-801 to the N-methyl-D-aspartate receptor complex was a modification of the method of Ransom and Stec [J. Neurochem., Vol. 51, pages 830-836 (1988)]. Cerebral cortices from young male Sprague-Dawley rats (200-300 g) were homogenized with 10 volumes ice-cold 0.32M sucrose using a motor-driven glass/Teflon homogenizer. The homogenate was centrifuged at 1,000 g for 10 minutes and the pellet was discarded. The supernatant was then centrifuged at 18,000 g for 20 minutes. The 18,000 g pellet was then resuspended in 10 volumes buffer A (5 mm Tris-HCl, pH 7.7) at 4° C., homogenized using high-intensity ultrasound and centrifuged at 8,000 for 20 minutes. The supernatant and upper buffy coat of the pellet were combined and centrifuged at 50,000 g for 20 minutes. The pellet was then resuspended in 10 volumes buffer A and homogenized using high-intensity ultrasound. These resuspended membranes were then centrifuged at 50,000 g, discarding the supernatant. The membranes were washed in this manner an additional three times and stored as a frozen suspension at -80° C. for at least 18 hours, but no longer than 2 weeks before use.
For binding experiments, frozen membranes were thawed, pelleted at 50,000 g for 20 minutes and washed as described above, except that 20 volumes of buffer A were used for resuspension, for a total of four times. The final pellet was resuspended in buffer B (5 mm Tris-HCl, pH 7.5) at 23° C. The binding assay mixture was 1.00 ml buffer B containing 200-300 μg membrane protein, 100 μm L-glutamate, 100 μm glycine, 2 nm [^3 H]MK-801 and tetraamine at the following concentrations: 0 ("100%+L-glu,+gly-Control") and 0.05, 0.1, 0.5, 1, 5, 10, 50, 100, 500 and 1,000 μm. Non-specific binding was determined using 100 μm MK-801.
Binding assays were performed in triplicate at 23° C. for one hour and were terminated by filtration through Whatman GF/B glass fiber filters followed by three 4.0 ml rinses of ice-cold buffer B using a Brandel M-48 Cell Harvester.

[4] = Metabolism of (HO)2 DEHSPM v. DEHSPM in mouse liver and kidney (HPLC); assay type: in vivo
Description: Metabolism of (HO)2 DEHSPM v. DEHSPM in Mouse Liver and Kidney. […] In ease case, animals were sacrificed for HPLC analysis one day after the final dose.
HPLC Analysis of Polyamines. Various tissues including the liver and kidney were prepared for HPLC analysis of polyamine content. In order to facilitate their handling, the organs were submerged in liquid nitrogen. Once frozen and weighed, the tissues were homogenized (Tissuemizer, Tekmar, Cincinnati, Ohio) in 1.2N perchloric acid (containing 1,7-diaminoheptane internal standard) in a 1:20 (w/v) ratio. The tissue homogenates were then freeze-thawed three times and stored in a -70° C. freezer until HPLC analysis was performed.
Each chromatographic assay included calibration standards which were treated in the same manner as the samples. […] The concentration of each polyamine was calculated from the peak area by calibration curves obtained by non-weighted least squares linear regression. Peak area and linear regression calculations were performed on a Macintosh Centris 650 with Rainin Dynamax HPLC Method Manager software (Rainin Instrument Co., Ridgefield, N.J.).

[5] = Chronic toxicity, one dose per day for five days; assay type: in vivo; conditions: mouse, in vivo
Description: In the chronic toxicity regimen, mice were administered the polyamine analogue as one dose per day for five days. Appetite, weight and overall physical appearance were recorded at the time of each injection. After the treatment regimen had been completed, the animals were observed an additional 10 days. The chronic toxicity dosing regimen was set up so that at least one test group was presented with a high fraction of lethalities.

[6] = tested on: castor oil-induced diarrhea; test: Castor oil-induced diarrhea; assay type: in vivo, rat; conditions: rat; for stool output / diarrhea during 6 hour assay (FIG. 8): subcutaneous injection 30 minutes before castor oil 5 ml/kg
From the text: Castor Oil-Induced Diarrhea. Male Sprague-Dawley rats (350-400 g) were fasted overnight in hanging wire cages and allowed free access to water.

[7] = mice, three weeks after a seven day schedule; cited from earlier work
[8] = Acute toxicity, single intraperitoneal injection; conditions: mouse, in vivo, ip
[9] = tetraamine analogues, L1210 cells, radiolabeled spermidine uptake, read-out: Ki, actual (Table 1)
[10] = triamine analogues, bioassay results not in model data set, read-out: Ki, Actual (Table 2)
[11] = 24 h after regimen, normalized for 30 g mouse
[12] = liver and kidneys, 24 h after regimen, 30 g mouse
[13] = mouse, one day after subchronic equimolar i.p. regimen

In the case of `C(CCNCCCCNC12CC3CC(CC(C3)C1)C2)CNCCCCNC12CC3CC(CC(C3)C1)C2` [BAHSPM], the Ki [1, 9] is reported as 2 µM.
Compound `CCNCCCCNCCCCNCCCNCC` [DE(3,4,4)] has a Ki [1, 9] of 8 µM.
In the case of `CCNCCCCNCCCNCCCCNCC` [DE(4,3,4)], the Ki [1, 9] is reported as 4 µM.
With `CCNCCCCNCCCCCNCCCCNCC` [DE(4,5,4)] the Ki [1, 9] was 6 µM.
`CCNCCCCNCCCCNCC` [DEHSPD] showed a Ki [1, 10] of 115 µM.
Work on `CCNCCCCNCCCCNCCCCNCC` [DEHSPM, Diethylhomospermine] yielded a Ki ([1]; L1210 cells, estimated from Lineweaver-Burke plots, read-out: Ki, [3H]-spermidine transport) of 1.4 µM, a Ki [1, 9] of 1.4 µM and an IC50 (L1210 cells [2]; 96 h, read-out: IC50 96 h) of 50 to 90 nM. The IC50 (L1210 cells [2]; Mus musculus, L1210, 48 h, 48 h, read-out: IC50 48 h) was 200 nM, the IC50 (L1210 cells [2]; Mus musculus, L1210, 96 h, 96 h, read-out: IC50 96 h) was 70 nM and the “SPM level relative to untreated controls” value (L1210 cells [3]; L1210 cells, 10 μm analogue, 48 hours, control = 100%) was 60% and 61%. For the same compound, the “N-deethylation by L1210 cells” value (L1210 cells [3]; in vitro conditions) was “do not N-deethylate”, the “concentration showing agonist activity on MK-801 binding” value (NMDA receptor) was 0.5-1.0 μm and the “concentrations of maximal antagonism of MK-801 binding” value (NMDA receptor) was ≥ 50 μm. The “concentrations showing marked antagonist activity on MK-801 binding” value (NMDA receptor) was “above 5 μm”, the “% of total dose present as total drug + metabolite, Kidneys” value [4, 11] was 9.67% and the “% of total dose present as total drug + metabolite, Liver” value [4, 11] was 24.15%. The “% of total dose present as unmetabolized parent drug, Kidneys” value [4, 11] was 3.14 ± 1.37%, the “% of total dose present as unmetabolized parent drug, Liver” value [4, 11] was 1.84 ± 0.53% and the “Amount of total dose present as dideethylated metabolite HSPM/(HO)2 HSPM, Kidneys” value [4, 11] was 0.408 µmol. For the same compound, the “Amount of total dose present as dideethylated metabolite HSPM/(HO)2 HSPM, Liver” value [4, 11] was 1.394 µmol, the “Amount of total dose present as total drug + metabolite, Kidneys” value [4, 11] was 0.604 µmol and the “Amount of total dose present as total drug + metabolite, Liver” value [4, 11] was 1.509 µmol. For the same compound, the “Amount of total dose present as unmetabolized parent drug, Kidneys” value [4, 11] was 0.196 µmol, the “Amount of total dose present as unmetabolized parent drug, Liver” value [4, 11] was 0.115 µmol and the “% of total dose present as total drug + metabolite, Both Tissues” value [4, 12] was 33.8% and 33.82%. For the same compound, the “% of total dose present as unmetabolized parent drug, Both Tissues” value [4, 12] was 5.0% and 4.98%, the “Amount of total dose present as dideethylated metabolite HSPM/(HO)2 HSPM, Both Tissues” value [4, 12] was 1.80 µmol and 1.802 µmol and the “Amount of total dose present as total drug + metabolite, Both Tissues” value [4, 12] was 2.11 µmol and 2.113 µmol. For the same compound, the “Amount of total dose present as unmetabolized parent drug, Both Tissues” value [4, 12] was 0.313 µmol and 0.311 µmol, the “level of unchanged drug in kidney” value [4, 13] was 409±178 nmol/g wet weight and the “level of unchanged drug in liver” value [4, 13] was 43.9±12.6 nmol/g wet weight. The “greater chronic toxicity of DEHSPM v. DENSPM” value [5] was 4-5 fold, the LD50 ([5]; read-out: chronic LD50) was 38 mg/kg and the “prevention of castor oil-induced diarrhea” value ([6]; 5 mg/kg subcutaneous, six hour assay) was “effectively prevented the onset of diarrheal stooling”. The “stool output / diarrhea during 6 hour assay (FIG. 8)” value [6] was “virtually no stool output”, the “drug administered remaining in liver and kidney as drug or metabolites” value [7] was 35% and the “share of drug remaining in the animal that is in the form of HSPM” value [7] was 90%. It also gave an LD50 [8] of 325 mg/kg.
`CCNCCCNCCCNCC` [DENSPD] gave a Ki [1, 10] of 200 µM.
For `CCNCCCNCCCNCCCNCC` [DENSPM, Diethylnorspermine], the Ki [1, 9] was 17 µM, the anti-diarrheal activity ([6]; 40 mg/kg) was “far less active than the homospermine compounds” and the “stool output / diarrhea during 6 hour assay (FIG. 8)” value [6] was “became diarrheal during the 6 hour assay”. The LD50 [8] was 325 mg/kg.
Work on `CCNCCCCNCCCNCC` [DESPD] yielded a Ki [1, 10] of 19.3 µM.
`CCNCCCNCCCCNCCCNCC` [DESPM] showed a Ki [1, 9] of 1.6 µM.
`CC(C)NCCCCNCCCCNCCCCNC(C)C` [DIPHSPM] gave a Ki [1, 9] of 8.1 µM.
Work on `CC(C)NCCCNCCCNCCCNC(C)C` [DIPNSPM] yielded a Ki [1, 9] of 40 µM.
Compound `CNCCCCNCCCCNCCCCNC` [DMHSPM] has a Ki [1, 9] of 0.97 µM.
Work on `CNCCCNCCCNCCCNC` [DMNSPM] yielded a Ki [1, 9] of 5.6 µM.
`CNCCCNCCCCNCCCNC` [DMSPM] gave a Ki [1, 9] of 1.1 µM.
With `CCCNCCCNCCCNCCCNCCC` [DPNSPM] the anti-diarrheal activity ([6]; 15 mg/kg) was “far less active than the homospermine compounds” and the “stool output / diarrhea during 6 hour assay (FIG. 8)” value [6] was “became diarrheal during the 6 hour assay”.
